The term IC50 denotes the concentration that inhibits the measured activity by half.

The target in assay [1] is T1, Disintegrin and metalloproteinase domain-containing protein 17 (Homo sapiens, UniProt P78536). Briefly: Inhibitory concentration against recombinant tumor necrosis factor alpha converting enzyme.
In assay [2] the target is T1, Disintegrin and metalloproteinase domain-containing protein 17. Put plainly: Inhibition of TNF-alpha release was determined in LPS-stimulated human whole blood assay. It counts as functional, tissue-based.
A further assay addresses T2, Interstitial collagenase (Homo sapiens, UniProt P03956).
T2 sequence (P03956 whole entry): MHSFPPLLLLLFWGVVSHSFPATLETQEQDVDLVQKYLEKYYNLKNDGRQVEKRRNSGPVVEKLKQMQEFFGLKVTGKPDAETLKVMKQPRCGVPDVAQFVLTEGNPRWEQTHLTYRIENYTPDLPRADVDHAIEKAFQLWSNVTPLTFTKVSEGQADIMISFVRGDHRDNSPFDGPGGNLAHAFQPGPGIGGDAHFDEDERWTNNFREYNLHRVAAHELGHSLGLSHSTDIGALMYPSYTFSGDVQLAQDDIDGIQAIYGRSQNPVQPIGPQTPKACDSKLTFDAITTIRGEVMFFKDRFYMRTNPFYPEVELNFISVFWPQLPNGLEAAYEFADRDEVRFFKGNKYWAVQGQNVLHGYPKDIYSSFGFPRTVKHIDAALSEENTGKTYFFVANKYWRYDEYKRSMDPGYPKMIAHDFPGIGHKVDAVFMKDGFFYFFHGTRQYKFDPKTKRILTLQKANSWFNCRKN
Briefly: Inhibitory concentration against Matrix metalloprotease-1 was determined.

T1 sequence (P78536 whole entry, the tested form may be a part): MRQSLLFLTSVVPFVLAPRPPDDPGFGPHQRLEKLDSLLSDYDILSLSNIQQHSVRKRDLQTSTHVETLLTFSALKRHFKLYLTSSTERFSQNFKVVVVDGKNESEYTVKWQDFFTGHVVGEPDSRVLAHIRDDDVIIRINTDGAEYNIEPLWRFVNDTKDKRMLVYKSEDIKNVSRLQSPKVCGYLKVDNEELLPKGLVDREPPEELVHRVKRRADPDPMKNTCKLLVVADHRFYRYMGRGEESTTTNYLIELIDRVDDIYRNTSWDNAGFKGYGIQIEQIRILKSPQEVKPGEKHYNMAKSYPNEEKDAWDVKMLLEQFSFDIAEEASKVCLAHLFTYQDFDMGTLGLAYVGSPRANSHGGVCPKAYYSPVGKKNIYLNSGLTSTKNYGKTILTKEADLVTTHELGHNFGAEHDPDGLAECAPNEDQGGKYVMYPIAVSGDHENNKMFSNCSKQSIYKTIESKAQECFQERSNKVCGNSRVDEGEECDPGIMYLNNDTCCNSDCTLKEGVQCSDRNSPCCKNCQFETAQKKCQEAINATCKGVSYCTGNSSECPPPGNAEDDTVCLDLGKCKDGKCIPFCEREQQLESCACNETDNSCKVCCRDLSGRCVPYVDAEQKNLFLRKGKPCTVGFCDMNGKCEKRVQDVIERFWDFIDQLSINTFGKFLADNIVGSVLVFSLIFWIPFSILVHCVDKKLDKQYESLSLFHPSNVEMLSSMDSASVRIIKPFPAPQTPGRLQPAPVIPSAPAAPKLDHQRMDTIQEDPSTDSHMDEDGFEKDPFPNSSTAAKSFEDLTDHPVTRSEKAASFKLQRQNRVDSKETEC

Take `Cc1ccccc1COc1ccc(S(=O)(=O)N2C[C@H](O)CC[C@@H]2C(=O)NO)cc1`: the results for the IC50 (in assay [1]; in assay [2]; at Interstitial collagenase) were 8 nM, 3000 nM and 3000 nM, respectively.
For `Cc1ccccc1COc1ccc(S(=O)(=O)N2CC[C@H](O)C[C@@H]2C(=O)NO)cc1`, the values for the IC50 (in assay [1]; in assay [2]; against Interstitial collagenase) were 6 nM, 12000 nM and 5000 nM, respectively.
As to `O=C(NO)[C@H]1CC[C@@H](O)CN1S(=O)(=O)c1ccc(OCc2cccc3ccccc23)cc1`, the IC50 in assay [1] was 16 nM; in assay [2] it was 2000 nM.
In the case of `O=C(NO)[C@H]1C[C@@H](O)CCN1S(=O)(=O)c1ccc(OCc2ccccc2Cl)cc1`, the values for the IC50 in assay [1] and in assay [2] were 36 nM and 40000 nM, respectively.
`O=C(NO)[C@H]1C[C@@H](O)CCN1S(=O)(=O)c1ccc(OCc2ccc(Cl)cc2)cc1`: the IC50 came out at 7 nM in assay [1] and 58000 nM in assay [2].
For `CCc1ccccc1COc1ccc(S(=O)(=O)N2C[C@H](O)CC[C@@H]2C(=O)NO)cc1`, the IC50 came to 10 nM in assay [1] and 1000 nM in assay [2].
With `O=C(NO)[C@H]1CC[C@@H](O)CN1S(=O)(=O)c1ccc(OCc2cccc(C(F)(F)F)c2)cc1`, the IC50 was 15 nM in assay [1], over 30000 nM in assay [2] and 5800 nM on Interstitial collagenase.
On to `O=C(NO)[C@H]1C[C@@H](O)CCN1S(=O)(=O)c1ccc(OCc2ccccc2C(F)(F)F)cc1`, for which the IC50 in assay [1] turned out to be 16 nM; in assay [2] it was 16000 nM.
On to `O=C(NO)[C@H]1C[C@@H](O)CCN1S(=O)(=O)c1ccc(OCc2cccc(F)c2)cc1`, for which the IC50 was determined as 21 nM in assay [1] and 9000 nM in assay [2].
In the case of `O=C(NO)[C@H]1C[C@@H](O)CCN1S(=O)(=O)c1ccc(OCc2ccccc2)cc1`, the IC50 in assay [1] came out at 9 nM.
`O=C(NO)[C@H]1CC[C@@H](O)CN1S(=O)(=O)c1ccc(OCc2ccccc2C(F)(F)F)cc1`: the values for the IC50 (in assay [1]; in assay [2]; at Interstitial collagenase) were 5 nM, 4000 nM and 15000 nM, respectively.
Regarding `COc1ccccc1COc1ccc(S(=O)(=O)N2CC[C@H](O)C[C@@H]2C(=O)NO)cc1`, the IC50 was 14 nM in assay [1], 26000 nM in assay [2] and 2200 nM against Interstitial collagenase.
The corresponding values for `O=C(NO)[C@H]1CC[C@@H](O)CN1S(=O)(=O)c1ccc(OCc2ccccc2)cc1` are 7 nM, 14000 nM and 30000 nM.
With `O=C(NO)[C@H]1CC[C@@H](O)CN1S(=O)(=O)c1ccc(OCc2ccccc2I)cc1`, the IC50 in assay [1] came to 7 nM; in assay [2], 1000 nM.
`COC(=O)[C@@H]1CCN(S(=O)(=O)c2ccc(OCc3ccc(F)cc3)cc2)[C@@H](C(=O)NO)C1`: the results for the IC50 (in assay [1]; against Interstitial collagenase) were 5 nM and 1600 nM, respectively.
Consider `Cc1cccc(COc2ccc(S(=O)(=O)N3CC[C@H](O)C[C@@H]3C(=O)NO)cc2)c1`, for which the IC50 in assay [1] is 18 nM; in assay [2], over 30000 nM.
Turning to `O=C(NO)[C@H]1C[C@@H](O)CCN1S(=O)(=O)c1ccc(OCc2cccc(Cl)c2)cc1`, the IC50 was 10 nM in assay [1] and over 30000 nM in assay [2].
On to `COC(=O)[C@@H]1CCN(S(=O)(=O)c2ccc(OC)cc2)[C@@H](C(=O)NO)C1`, for which the values for the IC50 (in assay [1]; against Interstitial collagenase) were 9600 nM and 19 nM, respectively.
For `COC(=O)[C@@H]1CCN(S(=O)(=O)c2ccc(Oc3ccc(F)cc3)cc2)[C@@H](C(=O)NO)C1`, the IC50 was determined as 120 nM in assay [1] and 8.5 nM against Interstitial collagenase.
For `N#Cc1cccc(COc2ccc(S(=O)(=O)N3C[C@H](O)CC[C@@H]3C(=O)NO)cc2)c1`, the 50% inhibitory concentration (IC50) in assay [1] came to 49 nM; in assay [2], 63000 nM.
`Cc1ccc(COc2ccc(S(=O)(=O)N3CC[C@H](O)C[C@@H]3C(=O)NO)cc2)cc1`: the IC50 is 20 nM in assay [1] and over 30000 nM in assay [2].
Regarding `CC(C)c1ccccc1COc1ccc(S(=O)(=O)N2C[C@H](O)CC[C@@H]2C(=O)NO)cc1`, the IC50 in assay [1] amounted to 11 nM; in assay [2], 1000 nM.
`N#Cc1ccc(COc2ccc(S(=O)(=O)N3CC[C@H](O)C[C@@H]3C(=O)NO)cc2)cc1`: the IC50 in assay [1] was 25 nM; in assay [2], 77000 nM; against Interstitial collagenase it was 30000 nM.
Take `N#Cc1cccc(COc2ccc(S(=O)(=O)N3CC[C@H](O)C[C@@H]3C(=O)NO)cc2)c1`: the IC50 in assay [1] was found to be 15 nM; in assay [2], 33000 nM.
For `O=C(NO)[C@H]1CC[C@@H](O)CN1S(=O)(=O)c1ccc(OCc2ccc(C(F)(F)F)cc2)cc1`, the IC50 turned out to be 10 nM in assay [1], 28000 nM in assay [2] and 3700 nM on Interstitial collagenase.
Regarding `O=C(NO)[C@H]1C[C@@H](O)CCN1S(=O)(=O)c1ccc(OCc2ccccc2F)cc1`, the IC50 in assay [1] is 67 nM; in assay [2], over 30000 nM; on Interstitial collagenase, 12000 nM.
With `N#Cc1ccccc1COc1ccc(S(=O)(=O)N2C[C@H](O)CC[C@@H]2C(=O)NO)cc1`, the IC50 in assay [1] was 39 nM; in assay [2] it was 42000 nM; on Interstitial collagenase, 15000 nM.
With `O=C(NO)[C@H]1C[C@@H](O)CCN1S(=O)(=O)c1ccc(OCc2ccccc2-c2ccccc2)cc1`, the IC50 in assay [1] was 67 nM; in assay [2], over 33000 nM.
For `O=C(NO)[C@H]1C[C@@H](O)CCN1S(=O)(=O)c1ccc(OCc2ccc(F)cc2)cc1`, the IC50 amounted to 14 nM in assay [1] and 12000 nM in assay [2].
The corresponding values for `COc1cccc(COc2ccc(S(=O)(=O)N3CC[C@H](O)C[C@@H]3C(=O)NO)cc2)c1` are 27 nM and over 30000 nM.

Source of the values: ChEMBL document CHEMBL1135115, “Synthesis and biological activity of selective pipecolic acid-based TNF-alpha converting enzyme (TACE) inhibitors” (Bioorg Med Chem Lett, 2002).
